Values of other authors, collected in patent US20110144044A1, “Composition and method for increasing post workout recovery” (priority 2009, published 2011).

Tests used:
rats = conditions: CNS administration
[1] = after caffeine ingestion 6 mg/kg, intense exercise

## CCNC(=O)[C@H]1O[C@@H](n2cnc3c(N)ncnc32)[C@H](O)[C@@H]1O [NECA, 5′-N-ethylcarboxamidoadenosine]
rats
  run time to fatigue: significantly reduced run time to fatigue

## Cn1c(=O)c2c(ncn2C)n(C)c1=O [caffeine]
rats
  increase in treadmill run time to fatigue: approximately 60%
subjects; [1]
  muscle lactate concentration: increased
  net muscle glycogenolysis: unaffected
  plasma epinephrine concentration: increased
subjects; caffeine 6 mg/kg ingested vs placebo, cycling to voluntary exhaustion
  endurance: significant increase in endurance
